This assay has as its system SYO-1 tumor spheroids, viability % test/control. Nature of the assay: Anticancer human tumor SYO-1 cell line growth inhibition.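 On all read-outs here: spheroids exposed to agents for 7 days before viability read.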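 On viability, T/C: 100% = DMSO vehicle control.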 The following applies: spheroids with HUVEC and MSC; for viability, T/C: stronger effect = lower value. From the text: Multicellular complex tumor spheroid response to DNA repair inhibitors in combination with DNA-damaging drugs
This study explores the anticancer activities of DNA-damaging drugs and inhibitors of DNA damage repair, both as single agents and in combinations. Complex tumor spheroids comprised of malignant cells, endothelial cells and mesenchymal stem cells served as an in vitro model for human solid tumors. This model system incorporates physiologically relevant features and patient-derived or established malignant cell lines with clinically relevant genetic alterations from many tumor types. Twenty-six patient-derived or established malignant cell lines were evaluated representing sarcoma, melanoma, small cell lung cancer (SCLC), non-small cell lung cancer (NSCLC), as well as bladder, ovarian and pancreatic cancers. The concentration ranges selected for each drug and investigational agent were based upon clinically achievable concentrations if the clinical Cmax of the agent was known.
Compounds. The drugs and compounds olaparib (NSC753686), talazoparib (NSC767125), berzosertib (NSC777718), elimusertib (NSC800525), nedisertib (NSC802822), VX-984 (NSC792969), AZD-1390 (NSC803789), temozolomide (NSC362856), topotecan (NSC609699), trabectedin (NSC813783), staurosporine (NSC755774), and gemcitabine (NSC613327) were obtained from the National Cancer Institute (NCI) Developmental Therapeutics Program Chemical Repository. The FDA-approved anticancer drug set is available from the Developmental Therapeutics Program at https://dtp.cancer.gov/organization/dscb/obtaining/available_plates.htm. […] The stock solutions were prepared in dimethyl sulfoxide (DMSO, Sigma-Aldrich, St. Louis, MO, cat. D2650) at 400-fold the tested concentration and stored at -70 degrees C. Prior to their use, the stock solutions were diluted in fresh medium and the final DMSO concentration in the assay was 0.25% (v/v). All drugs and investigational agents were tested over a range starting from a high concentration at or near the clinical Cmax and decreasing in half-log increments. If the clinical Cmax for an agent had not been determined, the highest concentration tested was 10 microM.
Cell Lines. The patient-derived cancer cell (PDC) lines: 156681-154-R-J1-PDC, 283228-195-R-J1-PDC, 287954-098-R-J1-PDC, 292921-168-R-J2-PDC, 349418-098-R-PDC, 425362-245-T-J1-PDC, 556581-035-R-J1-PDC, and BL0293-F563-PDC were received from the NCI Patient-Derived Models Repository (PDMR, https://pdmr.cancer.gov). The established cell lines HS-SY-2 (RRID:CVCL_8719), MPNST, and SYO-1 (RRID:CVCL_7146) were obtained from the Sloan Kettering Institute. The alveolar soft parts sarcoma cell line ASPS-1 (RRID:CVCL_S738) was established at the NCI and grown from internal seed stocks. The following established cell lines were purchased from the American Type Culture Collection (ATCC, Manassas, VA): G-401 (ATCC, cat. CRL-1441, RRID:CVCL_0270), SW982 (ATCC, cat. HTB-93, RRID:CVCL_1734), VA-ES-BJ (ATCC, cat. CRL-2138, RRID:CVCL_1785), NCI-H719 (ATCC, cat. CRL-5837, RRID:CVCL_1582), NCI-H196 (ATCC, cat. CRL-5823, RRID:CVCL_1509), NCI-H841 (ATCC, cat. CRL-5845, RRID:CVCL_1595), NCI-H1618 (ATCC, cat. CRL-5879, RRID:CVCL_1480), NCI-H1876 (ATCC, cat. CRL-5902, RRID:CVCL_1503), DMS 114 (ATCC, cat. CRL-2066; RRID:CVCL_1174), NCI-H211 (ATCC, cat. CRL-5824; RRID:CVCL_1529), and SW 1271 (ATCC, cat. CRL-2177, RRID:CVCL_1716). The small cell lung cancer cell line COR-L88 was purchased from Sigma-Aldrich (cat. 92031917-1VL, RRID:CVCL_1141). The non-small cell lung cancer cell lines NCI-H226 (RRID:CVCL_1544) and NCI-H322M (RRID:CVCL_1557) were established at the NCI and grown from internal seed stocks. Pooled donor human umbilical vein endothelial cells (HUVEC, Lonza, cat. CC-2519) and human mesenchymal stem cells (hMSC, Lonza, cat. PT-2501) were purchased from Lonza (Walkersville, MD).
Cell Culture. All cells were maintained in an incubator at 37 degrees C and 5% CO2 with 95% humidity. […]

[1] abbreviates: compound alone, run of 12/02/2019.
Setting [2] is: compound alone, run of 12/12/2019.

Molecules are shown by their SMILES. Values joined by “and” are separate entries in the source; they are usually repeats but may differ in a detail not shown here. Equal values may be shown once. Bounds are passed on as bounds.

Experimental findings from PubChem BioAssay AID1845219 (Molecular Pharmacology Branch, DTP, NCI, 2023) are described below.

In the case of `CC(C)n1c(=O)n(C)c2cnc3cc(F)c(-c4ccc(OCCCN5CCCCC5)nc4)cc3c21`, the viability, T/C (as a rule, the ratio of treated to control) by setting is: (compound 0.0316 µM) 105% and 101% and 96.7%; (compound 0.1 µM) 103% and 101% and 98.9%; (compound 0.316 µM) 84.4% and 102% and 93.8%; (compound 1 µM) 103% and 102% and 104%; (compound 3.16 µM) 107% and 103% and 104%; (compound 10 µM) 64.1% and 48% and 48.3%. In addition, the IC50 (commonly the concentration that gives 50% inhibition) (curve of compound) is > 10 µM and 9.6 µM and 9.62 µM.
Take `CC1COCCN1c1cc(-c2ccnn2C)c2ccnc(-c3ccn[nH]3)c2n1` (stereo not given): the viability, T/C is 3.02% and 9.27% and 5.04% (compound 0.1 µM); 1.96% and 2.61% and 2.62% (compound 0.316 µM); 1.13% and 1.61% and 1.44% (compound 1 µM); 0.59% and 0.92% and 0.71% (compound 3.16 µM); 0.6% and 0.99% and 0.58% (compound 10 µM). In addition, the IC50 (curve of compound) was < 0.0316 µM and 0.0321 µM.
With `CC[C@@]1(O)C(=O)OCc2c1cc1n(c2=O)Cc2cc3c(CN(C)C)c(O)ccc3nc2-1`, the viability, T/C is 92.2% [middle of 10 runs] (compound 0.003 µM), 1.67% [middle of 10 runs] (compound 0.03 µM), 1.54% [middle of 10 runs] (compound 0.0949 µM) and 1.88% [middle of 10 runs] (compound 0.3 µM). Moreover, the IC50 is, setting by setting: under setting [1], 5.58 nM [middle of 5 runs]; under setting [2], 6.49 nM [middle of 5 runs].
`CNCc1ccc(-c2cc(-c3nc(-c4ccc(S(=O)(=O)C(C)C)cc4)cnc3N)on2)cc1`: the viability, T/C is 101% and 100% and 109% (compound 0.00949 µM); 101% and 99.2% and 99% (compound 0.03 µM); 72.5% and 86.8% and 89.3% (compound 0.0949 µM); 3.37% and 4.34% and 3.43% (compound 0.3 µM); 0.29% and 0.76% and 0.36% (compound 0.949 µM); 0.18% and 0.19% (2×) (compound 3 µM). Besides, where the note is “curve of compound”, the IC50 is 0.138 µM and 0.159 µM and 0.161 µM.
As to `COc1cc(C)[nH]c(=O)c1CN1CCc2c(Cl)cc(C(OC)C3COC3)c(Cl)c2C1=O` (stereo not given), the viability, T/C runs as follows: (compound 0.0316 µM) 114% and 106% (2×); (compound 0.1 µM) 110% and 115% and 112%; (compound 0.316 µM) 95.1% and 101% and 106%; (compound 1 µM) 78.1% and 82.5% and 90.5%; (compound 3.16 µM) 67.7% and 80% and 82.7%; (compound 10 µM) 59.9% and 73.2% and 75.6%. Also, the IC50 (curve of compound) was above 10 µM.
Regarding `COc1cc2c(cc1O)CCNC21CSC2c3c(OC(C)=O)c(C)c4c(c3C(COC1=O)N1C(O)C3Cc5cc(C)c(OC)c(O)c5C(C21)N3C)OCO4` (stereo not given), the viability, T/C (compound 30 pM) is 97.6% [middle of 10 runs]; the viability, T/C (compound 0.0003 µM) was 14.7% [middle of 10 runs]; the viability, T/C (compound 0.000949 µM) is 1.05% [middle of 10 runs]; the viability, T/C (compound 0.003 µM) was 0.12% [middle of 7 runs]. Besides, the IC50 under setting [2] was 0.179 nM [middle of 9 runs].
As for `COc1ccc([C@@H](O)c2cc(-c3ncnc4cc(N5CCOCC5)ccc34)c(F)cc2Cl)nn1`, the viability, T/C was 109% and 108% and 104% (compound 0.0316 µM); 108% and 107% and 101% (compound 0.1 µM); 104% and 106% and 103% (compound 0.316 µM); 105% and 101% and 102% (compound 1 µM); 66.1% (2×) and 84.2% (compound 3.16 µM); 7.28% and 14.2% and 20.4% (compound 10 µM). Moreover, the IC50 (curve of compound) is 4.31 µM and 4.52 µM and 5.86 µM.
Turning to `Cc1cc(C)c(CNC(=O)c2cc(-c3ccc(CN4CCOCC4)cc3)cc3c2cnn3C2CCCC2)c(=O)[nH]1`, the viability, T/C is, setting by setting: (compound 0.0316 µM) 106% and 109% and 103%; (compound 0.1 µM) 106% and 109% and 100%; (compound 0.316 µM) 108% and 97.8% and 99.2%; (compound 1 µM) 107% and 104% and 103%; (compound 3.16 µM) 112% and 104% (2×); (compound 10 µM) 106% and 67% and 88.7%. Moreover, where the note is “curve of compound”, the IC50 was above 10 µM.
For `Cc1sc2c(c1C)C(c1ccc(Cl)cc1)=NC(CC(=O)Nc1ccc(O)cc1)c1nnc(C)n1-2` (stereo not given), the viability, T/C was 93.8% and 91.9% and 91.3% (compound 0.00949 µM); 90.7% and 90.8% and 85.5% (compound 0.03 µM); 31.8% and 49.4% and 54.7% (compound 0.0949 µM); 1.04% and 3.66% and 1.07% (compound 0.3 µM); 0.73% and 0.9% and 0.49% (compound 0.949 µM); 0.63% and 0.72% and 0.4% (compound 3 µM). Also, the concentration for half-maximal inhibition (IC50) (curve of compound) is 0.0665 µM and 0.0934 µM and 0.105 µM.
Turning to `Cn1ncnc1[C@H]1c2n[nH]c(=O)c3cc(F)cc(c23)N[C@@H]1c1ccc(F)cc1`, the viability, T/C is 81.1% and 79.7% and 87.3% (compound 0.00949 µM); 29.5% and 23.3% and 18.3% (compound 0.03 µM); 4.75% and 5.28% and 5.09% (compound 0.0949 µM); 2.61% and 2.85% and 2.82% (compound 0.3 µM); 1.54% and 2.38% and 1.48% (compound 0.949 µM); 1.36% and 1.92% and 1.26% (compound 3 µM). Further, where the note is “curve of compound”, the IC50 was 0.019 µM and 0.0174 µM and 0.0177 µM.
In the case of `Cn1nnc2c(C(N)=O)ncn2c1=O`, the viability, T/C (compound 1 µM) was 102% [middle of 9 runs]; the viability, T/C (compound 3.16 µM) was 98.2% [middle of 10 runs]; the viability, T/C (compound 10 µM) was 100% [middle of 10 runs]; the viability, T/C (compound 31.6 µM) was 106% [middle of 10 runs]. Moreover, the half-maximal inhibitory concentration (IC50) under setting [1] is > 100 µM and 88.3 µM.
Take `O=C(c1cc(Cc2n[nH]c(=O)c3ccccc23)ccc1F)N1CCN(C(=O)C2CC2)CC1`: the viability, T/C was 102% (2×) and 103% (compound 0.0949 µM); 100% and 103% and 99.2% (compound 0.3 µM); 90.7% and 93.7% and 94.1% (compound 0.949 µM); 14.7% and 32.7% and 11% (compound 3 µM); 3.59% and 3.04% and 2.51% (compound 9.49 µM); 2.83% and 2.91% and 2.43% (compound 30 µM). In addition, the IC50 (curve of compound) is 1.76 µM and 2.16 µM and 1.75 µM.
For the molecule `[2H]c1nc(C)nc([2H])c1-c1cc(NC[C@@H](C)c2cccc3c(C(=O)NC)ccnc23)ncn1`, the viability, T/C reads like this: (compound 0.0316 µM) 107% and 105% and 96.2%; (compound 0.1 µM) 105% and 104% and 102%; (compound 0.316 µM) 105% (2×) and 102%; (compound 1 µM) 105% and 99% and 98.5%; (compound 3.16 µM) 104% (2×) and 96.3%; (compound 10 µM) 100% and 95.5% and 101%. The half-maximal inhibitory concentration (IC50) (curve of compound) is above 10 µM.
